Measured values reported in paper PMC7894572 (Chemmedchem, 2020).
Structures can show the parent of a compound that is named as a salt. Where two headings read alike, the source gives them in different places.

What was measured:
SARS‐CoV PL^pro = SARS‐CoV PL^pro (Severe acute respiratory syndrome coronavirus, UniProt P0C6X7); assay: biochemical; assay type: biochemical
SARS‐CoV‐2 PL^pro = SARS‐CoV‐2 PL^pro (Severe acute respiratory syndrome coronavirus 2, UniProt P0DTD1); assay: biochemical; assay type: biochemical
SARS‐CoV‐2 = assay: microbe, parasite or virus in culture; assay type: cell-based; conditions: for EC50: Severe acute respiratory syndrome coronavirus 2, Vero C1008, 24 h, read-out: EC50 inhibition of SARS‐CoV‐2 replication
in vitro = conditions: African green monkey
[1] = read-out: Inhibition SARS‐CoV PL^pro, class (Table 1)
[2] = read-out: Percentage inhibition SARS‐CoV PL^pro
[3] = read-out: Inhibition SARS‐CoV‐2 PL^pro, class (Table 2)
[4] = read-out: Inhibition SARS‐CoV PL^pro, class (Table 2)
[5] = read-out: Percentage inhibition SARS‐CoV‐2 PL^pro
[6] = read-out: Inhibition SARS‐CoV‐2 PL^pro, class (Table 1)

C[C@@H](NC(=O)C1CCCCC1)c1cccc2ccccc12 [Compound 2 j, N ‐[(1R)‐1‐Naphth‐1‐ylethyl]cyclohexanecarboxamide]
Inhibition of SARS‐CoV PL^pro, in words (SARS‐CoV PL^pro): inactive | inhibition at 100 µM (SARS‐CoV PL^pro; [1]): < 50% | melting point: 170 °C

Cc1ccc(NC(=O)OC(C)(C)C)cc1C(=O)N[C@H](C)c1cccc2ccccc12 [Compound 2 q, (R)‐tert‐Butyl (4‐Methyl‐3‐((1‐(naphth‐1‐yl)ethyl)carbamoyl)phenyl) carbamate]
IC50 (SARS‐CoV PL^pro): 4.6 ± 0.4 µM

Cc1ccc(N(C)C)cc1C(=O)N[C@H](C)c1cccc2ccccc12 [Compound 2 r, (R)‐5‐(Dimethylamino)‐2‐methyl‐N‐[1‐(naphth‐1‐yl)ethyl]benzamide]
IC50 (SARS‐CoV PL^pro): 4 ± 0.2 µM | IC50 (SARS‐CoV‐2 PL^pro): 10 ± 2 µM

Cc1cccc2c1CN([C@H](C)c1cccc3ccccc13)C2.Cl [Compound 14 a, 4‐Methyl‐2‐[(1R)‐1‐naphth‐1‐ylethyl]‐2,3‐dihydro‐1H‐isoindol hydrochloride]
inhibition at 10 µM (SARS‐CoV PL^pro; [2]): 45% | inhibition at 100 µM (SARS‐CoV‐2 PL^pro; [3]): < 50% | melting point: 247 °C

C[C@@H](NC(=O)C(c1ccccc1)c1ccccc1)c1cccc2ccccc12 [Compound 2 m, (R)‐N‐(1‐(naphthalen‐1‐yl)ethyl)‐2,2‐diphenylacetamide]
Inhibition of SARS‐CoV PL^pro, in words (SARS‐CoV PL^pro): no inhibition | inhibition at 100 µM (SARS‐CoV PL^pro; [1]): < 50% | melting point: 152 °C

C[C@H](c1cccc2ccccc12)N1Cc2ccc([N+](=O)[O-])cc2C1 [Compound 14 f, 2‐[(1R)‐1‐Naphth‐1‐ylethyl]‐5‐nitro‐2,3‐dihydro‐1H‐isoindole]
Inhibition of SARS‐CoV PL^pro, in words (SARS‐CoV PL^pro): Inactive | inhibition at 100 µM (SARS‐CoV PL^pro; [4]): < 50%

C[C@@H](NC(=O)c1ccccc1)c1cccc2ccccc12 [Compound 2 c, N ‐[(1R)‐1‐Naphth‐1‐ylethyl]benzamide]
IC50 (SARS‐CoV PL^pro): 62 ± 5 µM | inhibition at 100 µM (SARS‐CoV‐2 PL^pro; [5]): 60% | melting point: 195 °C

COc1ccc2c(c1)CN([C@H](C)c1cccc3ccccc13)C2 [Compound 14 d, 5‐Methoxy‐2‐[(1R)‐1‐naphth‐1‐ylethyl]‐2,3‐dihydro‐1H‐isoindol]
IC50 (SARS‐CoV PL^pro): 14 ± 1 µM | inhibition at 100 µM (SARS‐CoV‐2 PL^pro; [3]): < 50%

C[C@@H](c1cccc2ccccc12)N1Cc2ccccc2C1.Cl [Compound 14 i, 2‐[(1S)‐1‐Naphth‐1‐ylethyl]‐2,3‐dihydro‐1H‐isoindol hydrochloride]
Inhibition of SARS‐CoV PL^pro, in words (SARS‐CoV PL^pro): abolished activity | inhibition at 100 µM (SARS‐CoV PL^pro; [4]): < 50% | Inhibition of SARS‐CoV‐2 PL^pro, in words (SARS‐CoV‐2 PL^pro): not show inhibitory activity | inhibition at 100 µM (SARS‐CoV‐2 PL^pro; [3]): < 50%

Cc1ccccc1NC(=O)C(C)c1cccc2ccccc12 (stereo not shown) [Compound 11 a, N ‐(2‐Methylphenyl)‐2‐naphth‐1‐ylpropanamide]
inhibition at 100 µM (SARS‐CoV PL^pro; [1]): < 50% | Inhibition of SARS‐CoV‐2 PL^pro, in words (SARS‐CoV‐2 PL^pro): not show inhibitory activity | inhibition at 100 µM (SARS‐CoV‐2 PL^pro; [6]): < 50% | melting point: 151 °C

C[C@H](c1cccc2ccccc12)N1Cc2ccc(O)cc2C1 [Compound 14 l, 2‐[(1R)‐1‐Naphth‐1‐ylethyl]‐2,3‐dihydro‐1H‐isoindol‐5‐ol hydrochloride]
IC50 (SARS‐CoV PL^pro): 4.5 ± 0.4 µM

C[C@H](c1cccc2ccccc12)N1Cc2ccc(N)cc2C1 [Compound 14 k, 2‐[(1R)‐1‐Naphth‐1‐ylethyl]‐2,3‐dihydro‐1H‐isoindol‐5‐amine]
IC50 (SARS‐CoV PL^pro): 4.9 ± 0.3 µM | IC50 (SARS‐CoV‐2 PL^pro): 57 ± 1 µM | Activity in the viral replication assay, in words (SARS‐CoV‐2; SARS‐CoV‐2, Vero E6 cells): completely inactive | CC50 (in vitro): > 500 µM

C[C@@H](NC(=O)c1ccccc1Br)c1cccc2ccccc12 [Compound 2 g, 2‐Bromo‐N‐[(1R)‐1‐naphth‐1‐ylethyl]benzamide]
IC50 (SARS‐CoV PL^pro): 11 ± 2 µM | inhibition at 100 µM (SARS‐CoV‐2 PL^pro; [5]): 73% | melting point: 153 °C

c1ccc2c(c1)CN(Cc1cccc3ccccc13)C2 [Compound 14 c, 2‐(Naphth‐1‐ylmethyl)‐2,3‐dihydro‐1H‐isoindol hydrochloride]
inhibition at 100 µM (SARS‐CoV PL^pro; [4]): < 50%

C[C@@H](NC(=O)c1ccccc1C#N)c1cccc2ccccc12 [Compound 2 e, (R)‐2‐Cyano‐N‐(1‐(naphth‐1‐yl)ethyl)benzamide]
IC50 (SARS‐CoV PL^pro): 18 ± 2 µM | inhibition at 100 µM (SARS‐CoV‐2 PL^pro; [6]): < 50% | melting point: 181 °C

C[C@H](c1cccc2ccccc12)N1Cc2cccc(N)c2C1 [Compound 14 j, 2‐[(1R)‐1‐Naphth‐1‐ylethyl]‐2,3‐dihydro‐1H‐isoindol‐4‐amine]
IC50 (SARS‐CoV PL^pro): 32 ± 2 µM | inhibition at 100 µM (SARS‐CoV‐2 PL^pro; [3]): < 50%

CC(C(=O)Nc1ccc(S(N)(=O)=O)cc1)c1cccc2ccccc12 (stereo not shown) [Compound 11 c, 2‐Naphth‐1‐yl‐N‐(4‐sulfamoylphenyl)propanamide]
inhibition at 100 µM (SARS‐CoV PL^pro; [1]): < 50% | inhibition at 100 µM (SARS‐CoV‐2 PL^pro; [6]): < 50% | melting point: 206 °C

Cc1cc(N)ccc1C(=O)N[C@H](C)c1cccc2ccccc12.Cl [Compound 2 p, (R)‐4‐Amino‐2‐methyl‐N‐[1‐(naphth‐1‐yl)ethyl]benzamide hydrochloride]
IC50 (SARS‐CoV‐2 PL^pro): 7.5 ± 0.6 µM | SI (selectivity index) (SARS‐CoV‐2): >31.7 | EC50 (SARS‐CoV‐2): 15.8 ± 1.59 µM | melting point: 231 °C | CC50 (in vitro): > 500 µM

C[C@H](c1cccc2ccccc12)N1Cc2cccc([N+](=O)[O-])c2C1 [Compound 14 e, 2‐[(1R)‐1‐Naphth‐1‐ylethyl]‐4‐nitro‐2,3‐dihydro‐1H‐isoindole]
Inhibition of SARS‐CoV PL^pro, in words (SARS‐CoV PL^pro): Inactive | inhibition at 10 µM (SARS‐CoV PL^pro; [2]): < 50%

C[C@H](c1cccc2ccccc12)N1Cc2ccccc2C1.Cl [Compound 14 h, 2‐[(1R)‐1‐Naphth‐1‐ylethyl]‐2,3‐dihydro‐1H‐isoindol hydrochloride]
IC50 (SARS‐CoV PL^pro): 2.9 ± 0.2 µM | IC50 (SARS‐CoV‐2 PL^pro): 7.6 ± 0.2 µM | SI (selectivity index) (SARS‐CoV‐2): 56.3 | EC50 (SARS‐CoV‐2): 7.85 ± 1.5 µM | CC50 (in vitro): 442 ± 1.37 µM

2‐Methyl‐N‐(naphth‐1‐ylethyl]benzamide [Compound 4 b]
Inhibition of SARS‐CoV PL^pro, in words (SARS‐CoV PL^pro): inactive | Inhibition SARS‐CoV PL^pro, class (Table 1) (SARS‐CoV PL^pro; 100 µM): n.a.^[b] (key: Compounds with inhibitory effect less than 50 % at 100 μM compared to DMSO were labelled as not active (n.a.))

Cc1ccccc1C(=O)N[C@@H](C)c1cccc2ccccc12 [Compound 4 d, 2‐Methyl‐N‐[(1S)‐1‐naphth‐1‐ylethyl]benzamide]
inhibition at 100 µM (SARS‐CoV PL^pro; [1]): < 50% | Inhibition of SARS‐CoV‐2 PL^pro, in words (SARS‐CoV‐2 PL^pro): not show inhibitory activity | inhibition at 100 µM (SARS‐CoV‐2 PL^pro; [6]): < 50%

CC(C(=O)NC1CCCCC1)c1cccc2ccccc12 (stereo not shown) [Compound 11 d, N ‐Cyclohexyl‐2‐naphth‐1‐ylpropanamide]
inhibition at 100 µM (SARS‐CoV PL^pro; [1]): < 50% | inhibition at 100 µM (SARS‐CoV‐2 PL^pro; [6]): < 50% | melting point: 151 °C

Cc1ccccc1C(=O)NC(CO)c1cccc2ccccc12 (stereo not shown) [Compound 8, N ‐(2‐Hydroxy‐1‐naphth‐1‐ylethyl)‐2‐methylbenzamide]
Inhibition of SARS‐CoV PL^pro, in words (SARS‐CoV PL^pro): inactivity | inhibition at 100 µM (SARS‐CoV PL^pro; [1]): < 50%

C[C@@H](NC(=O)c1ccccc1F)c1cccc2ccccc12 [Compound 2 f, 2‐Fluor‐N‐[(1R)‐1‐naphth‐1‐ylethyl]benzamide]
IC50 (SARS‐CoV PL^pro): 9 ± 1 µM | inhibition at 100 µM (SARS‐CoV‐2 PL^pro; [5]): 67% | melting point: 135 °C

Cc1ccccc1CN[C@H](C)c1cccc2ccccc12 [Compound 17, (1R)‐N‐(2‐Methylbenzyl)‐1‐naphth‐1‐ylethylamine hydrochloride]
inhibition at 100 µM (SARS‐CoV PL^pro; [2]): 55%

Cc1cc(NS(C)(=O)=O)ccc1C(=O)N[C@H](C)c1cccc2ccccc12 [Compound 2 s, 2‐Methyl‐4‐[(methylsulfonyl)amino]‐N‐[(1R)‐1‐naphth‐1‐ylethyl]benzamide]
IC50 (SARS‐CoV PL^pro): 4.8 ± 0.3 µM | IC50 (SARS‐CoV‐2 PL^pro): 10 ± 1 µM

Cc1cc(NC(=O)OC(C)(C)C)ccc1C(=O)N[C@H](C)c1cccc2ccccc12 [Compound 2 o, (R)‐tert‐Butyl(3‐Methyl‐4‐((1‐(naphth‐1‐yl)ethyl)carbamoyl)phenyl)carbamate]
IC50 (SARS‐CoV PL^pro): 1.6 ± 0.3 µM

CC(C(=O)Nc1ccccc1F)c1cccc2ccccc12 (stereo not shown) [Compound 11 b, N ‐(2‐Fluorphenyl)‐2‐naphth‐1‐ylpropanamide]
inhibition at 100 µM (SARS‐CoV PL^pro; [1]): < 50% | inhibition at 100 µM (SARS‐CoV‐2 PL^pro; [6]): < 50% | melting point: 116 °C

Cc1ccsc1C(=O)N[C@H](C)c1cccc2ccccc12 [Compound 2 n, 3‐Methyl‐N‐[(1R)‐1‐naphth‐1‐ylethyl]thiophene‐2‐carboxamide]
IC50 (SARS‐CoV PL^pro): 14 ± 1 µM | IC50 (SARS‐CoV‐2 PL^pro): 42 ± 6 µM | SI (selectivity index) (SARS‐CoV‐2): >105 | EC50 (SARS‐CoV‐2): 4.74 ± 1.35 µM | CC50 (in vitro): > 500 µM

Cc1ccccc1C(=O)N[C@H](C)c1cccc2ccccc12 [Compound 2 a, 2‐Methyl‐N‐[(1R)‐naphth‐1‐ylethyl]benzamide, reference compound]
IC50 (SARS‐CoV‐2 PL^pro): 6.9 ± 0.7 µM

Cc1ccccc1C(=O)NC(C)c1ccccc1 (stereo not shown) [Compound 4 a, 2‐Methyl‐N‐(1‐phenyl)benzamide]
inhibition at 100 µM (SARS‐CoV PL^pro; [1]): < 50%

C[C@@H](NC(=O)C(C)(C)C)c1cccc2ccccc12 [Compound 2 k]
Inhibition of SARS‐CoV PL^pro, in words (SARS‐CoV PL^pro): inactive | inhibition at 100 µM (SARS‐CoV PL^pro; [1]): < 50% | melting point: 131 °C

C[C@@H](NC(=O)Cc1ccccc1)c1cccc2ccccc12 [Compound 2 l, N ‐[(1R)‐1‐Naphth‐1‐ylethyl]‐2‐phenylacetamid]
inhibition at 100 µM (SARS‐CoV PL^pro; [2]): 57% | melting point: 130 °C

Cc1ccccc1C(=O)NC(c1ccccc1)c1ccccc1 [Compound 4 c, N ‐(Diphenylmethyl)‐2‐methylbenzamide]
Inhibition of SARS‐CoV PL^pro, in words (SARS‐CoV PL^pro): inactive | inhibition at 100 µM (SARS‐CoV PL^pro; [1]): < 50%

C[C@@H](NC(=O)c1ccccc1C(F)(F)F)c1cccc2ccccc12 [Compound 2 d, N ‐[(1R)‐1‐Naphth‐1‐ylethyl]‐2‐(trifluormethyl)benzamide]
inhibition at 100 µM (SARS‐CoV PL^pro; [1]): < 50%

C[C@@H](NC(=O)c1ccccc1I)c1cccc2ccccc12 [Compound 2 h, 2‐Iodo‐N‐[(1R)‐1‐naphth‐1‐ylethyl]benzamide]
IC50 (SARS‐CoV PL^pro): 25 ± 3 µM | inhibition at 100 µM (SARS‐CoV‐2 PL^pro; [6]): < 50% | melting point: 161 °C

CNS(=O)(=O)c1ccc(C)c(C(=O)N[C@H](C)c2cccc3ccccc23)c1 [Compound 2 t, 2‐Methyl‐5‐(methylsulfamoyl)‐N‐[(1R)‐1‐naphth‐1‐ylethyl]benzamide]
IC50 (SARS‐CoV PL^pro): 4 ± 0.3 µM | inhibition at 100 µM (SARS‐CoV‐2 PL^pro; [5]): 87% | melting point: 184 °C
